The text below walks through data of patent US11034669B2, “Pyrrole and pyrazole compounds and methods of use thereof” (Nuvation Bio Inc., priority 2018, dated 2021).

pIC50: −log10 of the molar value.

One test concerns the target T1, GR (Homo sapiens, UniProt P04150).
T1 sequence (P04150 1-777): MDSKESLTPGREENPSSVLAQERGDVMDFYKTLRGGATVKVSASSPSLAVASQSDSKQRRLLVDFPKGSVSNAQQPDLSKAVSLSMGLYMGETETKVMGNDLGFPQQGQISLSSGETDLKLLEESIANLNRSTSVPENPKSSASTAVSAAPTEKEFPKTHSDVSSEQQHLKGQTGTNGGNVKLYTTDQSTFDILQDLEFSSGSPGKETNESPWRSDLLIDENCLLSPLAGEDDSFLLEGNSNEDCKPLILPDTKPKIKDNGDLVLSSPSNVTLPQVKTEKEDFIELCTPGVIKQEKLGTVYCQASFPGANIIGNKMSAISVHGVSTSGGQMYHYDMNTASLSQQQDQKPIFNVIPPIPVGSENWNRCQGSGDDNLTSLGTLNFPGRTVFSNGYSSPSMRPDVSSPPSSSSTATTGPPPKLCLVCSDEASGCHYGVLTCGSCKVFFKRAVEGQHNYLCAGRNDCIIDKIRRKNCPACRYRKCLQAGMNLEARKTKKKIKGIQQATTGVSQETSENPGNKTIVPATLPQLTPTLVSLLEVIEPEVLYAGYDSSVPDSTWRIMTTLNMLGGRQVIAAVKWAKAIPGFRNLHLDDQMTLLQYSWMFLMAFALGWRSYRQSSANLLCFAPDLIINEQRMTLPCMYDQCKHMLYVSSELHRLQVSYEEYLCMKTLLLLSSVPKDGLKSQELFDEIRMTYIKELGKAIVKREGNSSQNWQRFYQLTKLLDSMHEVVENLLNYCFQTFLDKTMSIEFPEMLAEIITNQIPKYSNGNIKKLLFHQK
As to the kind of experiment: GR antagonist assay (GRE-LUC luciferase reporter, with 0.1 nM dexamethasone). For orientation: Reporter assays use an easily measured gene product as a stand-in for the process of interest.

The test system of the next test is LNCaP-abl cells. As to the kind of experiment: Cell proliferation assay, LNCaP-abl (CellTiter-Glo). Format: cell-based. The following applies: three days. A general note: Cellular ATP, detected with luciferase, serves as a proxy for viable cell number.
The target in another test is T2, Human AR (Homo sapiens, UniProt P10275).
T2 construct: expressed in transfected cells; host or cells: HEK-293 cells
T2 sequence (P10275 1-920): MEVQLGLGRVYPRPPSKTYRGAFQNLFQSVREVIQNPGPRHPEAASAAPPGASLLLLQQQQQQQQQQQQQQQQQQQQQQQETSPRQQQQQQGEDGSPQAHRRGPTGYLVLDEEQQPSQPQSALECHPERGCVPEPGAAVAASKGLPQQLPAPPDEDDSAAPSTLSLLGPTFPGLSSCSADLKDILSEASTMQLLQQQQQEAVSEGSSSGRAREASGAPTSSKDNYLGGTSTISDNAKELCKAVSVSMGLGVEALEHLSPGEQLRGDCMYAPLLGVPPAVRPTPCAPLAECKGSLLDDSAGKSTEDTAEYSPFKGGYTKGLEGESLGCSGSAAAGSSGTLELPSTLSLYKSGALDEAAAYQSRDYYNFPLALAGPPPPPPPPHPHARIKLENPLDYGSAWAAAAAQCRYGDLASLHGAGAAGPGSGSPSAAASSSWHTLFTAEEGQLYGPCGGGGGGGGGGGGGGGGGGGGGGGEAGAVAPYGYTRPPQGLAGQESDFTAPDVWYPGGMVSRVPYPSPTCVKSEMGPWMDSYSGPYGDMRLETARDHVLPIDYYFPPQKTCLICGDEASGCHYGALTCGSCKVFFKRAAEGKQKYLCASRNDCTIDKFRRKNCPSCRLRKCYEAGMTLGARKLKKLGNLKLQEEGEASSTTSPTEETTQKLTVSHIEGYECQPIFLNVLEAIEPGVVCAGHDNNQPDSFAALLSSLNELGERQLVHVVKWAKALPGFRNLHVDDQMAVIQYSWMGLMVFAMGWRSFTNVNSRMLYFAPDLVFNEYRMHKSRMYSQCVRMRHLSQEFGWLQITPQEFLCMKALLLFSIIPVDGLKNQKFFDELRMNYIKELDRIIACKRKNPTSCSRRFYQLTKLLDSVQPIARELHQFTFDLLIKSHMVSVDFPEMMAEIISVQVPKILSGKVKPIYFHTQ
As to the kind of experiment: AR antagonist assay (GRE-LUC luciferase reporter, with 0.1 nM R1881). The following applies: read-out: AR Antagonism IC50. It counts as cell-based. Here is the method:
Human AR cDNA cloned into pCMV vector, GRE-LUC, and CMV-renilla-LUC were used to transfect cells. HEK-293 cells (ATCC) were plated at 120,000 cells per well of a 24 well plate in DME+5% csFBS (Fisher Scientific, Waltham, Mass.). The cells were transfected using Lipofectamine (Life Technologies, Carlsbad, Calif.) with 0.25 μg GRE-LUC, 0.010 μg CMV-LUC (renilla luciferase) and 25 ng of the AR. […] Luciferase assay was performed 48 hrs after transfection. Firefly luciferase assay values were normalized to renilla luciferase values and were graphed using graphpad prism software (La Jolla, Calif.).

Procedure for LNCaP-abl cells: LNCaP-abl (3,000 cells/well, received from Dr. Myles Brown, Dana Farber Cancer Institute), 22RV 1 (1,000 cells/well), LNCaP (5,000 cells/well), or COS (3,000 cells/well) cells were plated in 96 well plates in 50 μl RPMI+10% FBS (Fisher Scientific, Waltham, Mass.). LNCaP, COS, and 22RV 1 cells were obtained from ATCC. Cells were treated in RPMI+10% FBS with test articles, ranging from 1 nM to 10 μM. Three days later, viable cells (LNCaP-abl, 22RV 1, and COS) were measured by CellTiter-Glo assay (Promega, Madison, Wis.). For LNCaP cells, medium containing test article was changed after 3 days of treatment, and after an additional 3 days of culture, viable cells were measured by CellTiter-Glo assay.

As a reminder, the pIC50 is −log10 of the IC50, conventionally taken in molar units. On GR, `N#Cc1ccc(-c2ccn(-c3ccc(CNC(=O)c4ccccn4)c(F)c3)n2)cc1C(F)(F)F` [Compound 16] showed a pIC50 of less than 5.00. Further, in the test with LNCaP-abl cells, the “cell proliferation, % of vehicle at 3 μM” value is given as 89% and the “cell proliferation, % of vehicle at 10 μM” value is on record as 98%. Besides, at Human AR, the pIC50 was less than 5.00.
`Cc1ncsc1C(=O)NCc1ccc(-n2ccc(-c3ccc(C#N)c(C(F)(F)F)c3)n2)cc1F` [Compound 15]: on GR, the pIC50 was less than 5.00. Also, in the test with LNCaP-abl cells, the “cell proliferation, % of vehicle at 3 μM” value came to 66% and the “cell proliferation, % of vehicle at 10 μM” value is 3%. Also, the pIC50 at Human AR was 6.55.
